The record followed here is ChEMBL document CHEMBL1201862, “PubChem BioAssay data set” (2004).

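Interpolation was linear, between the two tested concentrations surrounding the appropriate level; five concentrations were tested over 48 hours in 96-well plates. At the GI50, growth is halved.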 Activity calls are given as the source filed them. Rule as the data show it: active = GI50 up to about 1.1 µM and inactive = higher. Where only a bound is given, the exact number is not on record here.

Test systems include RXF 393; SN12C; Malme-3M; UO-31; KM12; HCT-116; UACC-257; RPMI-8226; TK-10; IGROV-1; NCI-H460; 786-0; LOX IMVI; SF-295; HOP-62; U-251; OVCAR-4; HL-60; HCC 2998; MDA-N.
What all share (assay): NCI-60 cell line screen, 48 h

For the molecule `CC1(C)C2CC1C(/C=N\OCC(=O)O)=CC2=O` (stereo not drawn), the GI50 in the test with RXF 393, in the test on SN12C, in the test on Malme-3M, with UO-31, with KM12 and in the test on HCT-116 was > 100 µM (inactive) in each case. Moreover, the GI50 in the test on UACC-257, in the test on RPMI-8226, in the test on TK-10, with IGROV-1, with NCI-H460 and in the test on 786-0 was > 100 µM (inactive) throughout. Further, the GI50 with LOX IMVI, in the test with SF-295, in the test with HOP-62, with U-251, in the test on OVCAR-4 and with HL-60 was > 100 µM (inactive) each time. In addition, the GI50 with HCC 2998 and in the test with MDA-N was > 100 µM (inactive) each time.

`O=[N+]([O-])c1ccc(Cl)cc1C1ON=C(c2ccccc2)N1C12CC3CC(CC(C3)C1)C2` (stereo not drawn): the GI50 with RXF 393 is > 100 µM (inactive); in the test on SN12C it was > 100 µM (inactive); in the test with Malme-3M, 49.4 µM (inactive); with UO-31, > 100 µM (inactive); in the test on HCT-116, 86.9 µM (inactive); in the test with UACC-257, > 100 µM (inactive). The GI50 in the test on RPMI-8226 was > 100 µM (inactive); in the test on TK-10, > 100 µM (inactive); in the test with IGROV-1 it was > 100 µM (inactive); in the test on NCI-H460 it was > 100 µM (inactive); with 786-0, > 100 µM (inactive); in the test on LOX IMVI, 57.5 µM (inactive). The GI50 with SF-295 is > 100 µM (inactive); with HOP-62 it was > 100 µM (inactive); in the test on U-251 it was > 100 µM (inactive); with OVCAR-4, > 100 µM (inactive); with HL-60, 73.6 µM (inactive); in the test with HCC 2998 it was > 100 µM (inactive). Further, in the test with MDA-N, the GI50 is > 100 µM (inactive).

For `O=c1c2cc([N+](=O)[O-])ccc2n(Cc2ccccc2)n1Cc1ccccc1`, the GI50 was 24.9 µM (inactive) with RXF 393; 20.5 µM (inactive) in the test on SN12C; > 17.8 µM (inactive) in the test with Malme-3M; 12.4 µM (inactive) with UO-31; 10.5 µM (inactive) in the test with KM12; 16.9 µM (inactive) in the test on HCT-116. The GI50 is 10.8 µM (inactive) in the test on UACC-257; 7.41 µM (inactive) in the test with RPMI-8226; 22.8 µM (inactive) with TK-10; 20.8 µM (inactive) in the test on IGROV-1; 11.8 µM (inactive) in the test with NCI-H460; 21.7 µM (inactive) in the test on 786-0. For the same molecule, the GI50 with LOX IMVI was 9.2 µM (inactive); in the test on SF-295, 15.1 µM (inactive); in the test on HOP-62, > 31.6 µM (inactive); in the test with U-251, 15.1 µM (inactive); in the test on OVCAR-4 it was 12.3 µM (inactive); with HL-60, 10.3 µM (inactive). Further, the GI50 in the test with HCC 2998 is 17.9 µM (inactive); in the test with MDA-N it was 12.2 µM (inactive).

For `COc1ccc(C2CC(c3c(C)nn(-c4ccccc4)c3-c3ccc(C)cc3O)=NN2c2ccccc2)cc1` (stereo not drawn), the GI50 in the test with RXF 393 was 8.13 µM (inactive); with SN12C, > 100 µM (inactive); with Malme-3M it was 19.9 µM (inactive); in the test with UO-31, 24.7 µM (inactive); with KM12, 3.33 µM (inactive); in the test on HCT-116, 12.7 µM (inactive). For the same molecule, the GI50 is 67.3 µM (inactive) in the test on UACC-257; 4.81 µM (inactive) in the test on RPMI-8226; > 100 µM (inactive) in the test with TK-10; 49.3 µM (inactive) in the test on IGROV-1; 3.42 µM (inactive) with NCI-H460; > 100 µM (inactive) with 786-0. Moreover, the GI50 with LOX IMVI was > 30.1 µM (inactive); with SF-295, 6.93 µM (inactive); in the test on HOP-62, > 100 µM (inactive); with U-251, 33.3 µM (inactive); with OVCAR-4, > 45.7 µM (inactive); in the test with HL-60, 9.27 µM (inactive). Further, the GI50 in the test with HCC 2998 is 12 µM (inactive); with MDA-N, 21.4 µM (inactive).

Regarding `CCOC(=O)CC(=O)C(=O)NN=C1NCCCN1`, the GI50 in the test on RXF 393, with SN12C, in the test with Malme-3M, in the test with UO-31, in the test on KM12 and in the test on HCT-116 was > 100 µM (inactive) in each case. Moreover, the GI50 in the test with RPMI-8226, with TK-10, in the test on IGROV-1, with NCI-H460, with 786-0 and in the test with LOX IMVI was > 100 µM (inactive) throughout. Further, the GI50 in the test on SF-295, in the test with HOP-62, in the test with U-251, with OVCAR-4, with HL-60 and in the test with HCC 2998 was > 100 µM (inactive) throughout. The GI50 in the test on MDA-N is > 100 µM (inactive).

For `CC1=CC(=O)c2cccc(O)c2C1=O`, the GI50 is 1.88 µM (inactive) in the test on RXF 393; 2.32 µM (inactive) in the test on SN12C; 1.62 µM (inactive) in the test with Malme-3M; 1.79 µM (inactive) in the test with UO-31; 12.6 µM (inactive) in the test with KM12; 1.91 µM (inactive) with HCT-116. Also, the GI50 in the test with UACC-257 was 1.79 µM (inactive); with RPMI-8226, 3.53 µM (inactive); with TK-10, 2.43 µM (inactive); with IGROV-1 it was 13.2 µM (inactive); with NCI-H460 it was 5.75 µM (inactive); in the test on 786-0, 1.7 µM (inactive). For the same molecule, the GI50 is 2.52 µM (inactive) with LOX IMVI; 14.3 µM (inactive) with SF-295; 17.1 µM (inactive) in the test on HOP-62; 16.5 µM (inactive) with U-251; 1.92 µM (inactive) in the test with OVCAR-4; 0.935 µM (active) with HL-60. For the same molecule, the GI50 in the test with HCC 2998 is 8.57 µM (inactive); in the test on MDA-N, 1.9 µM (inactive).

Regarding `CCCCCCc1cc2cc(C(=O)Nc3ccccc3)c(=N)oc2cc1O`, the GI50 in the test with RXF 393 is 5.56 µM (inactive); in the test with SN12C it was 2.42 µM (inactive); in the test with Malme-3M it was 1.98 µM (inactive); in the test on UO-31, 2.82 µM (inactive); in the test on KM12 it was 2.51 µM (inactive); in the test on HCT-116, 2.5 µM (inactive). Further, the GI50 in the test on UACC-257 was 4.63 µM (inactive); with RPMI-8226 it was 4.08 µM (inactive); in the test with TK-10, 6.78 µM (inactive); with IGROV-1, 2.92 µM (inactive); in the test on NCI-H460, 3.24 µM (inactive); with 786-0 it was 3.21 µM (inactive). The GI50 is 3.23 µM (inactive) in the test with LOX IMVI; 3.05 µM (inactive) in the test on SF-295; 2.76 µM (inactive) in the test with HOP-62; 2.99 µM (inactive) in the test on U-251; 4.13 µM (inactive) with OVCAR-4; 4.08 µM (inactive) with HL-60. Further, the GI50 in the test on HCC 2998 was 3.46 µM (inactive); with MDA-N, 3.88 µM (inactive).

In the case of `Nc1nc(NCc2ccccc2)cc(NCc2ccccc2)n1`, the GI50 is 6.31 µM (inactive) in the test with RXF 393; 4.57 µM (inactive) in the test with SN12C; 5.66 µM (inactive) in the test with Malme-3M; 6.31 µM (inactive) with UO-31; 4.28 µM (inactive) in the test on KM12; 3.45 µM (inactive) in the test with HCT-116. Also, the GI50 with UACC-257 was 5.69 µM (inactive); with RPMI-8226, 3.06 µM (inactive); in the test with TK-10 it was 8.02 µM (inactive); in the test with IGROV-1, 4.44 µM (inactive); in the test on NCI-H460 it was 4.73 µM (inactive); with 786-0, 4.92 µM (inactive). For the same molecule, the GI50 was 4.23 µM (inactive) in the test on LOX IMVI; 4.91 µM (inactive) in the test on SF-295; 12.8 µM (inactive) with HOP-62; 5.14 µM (inactive) with U-251; 9.89 µM (inactive) in the test on OVCAR-4; 37.8 µM (inactive) with HL-60. For the same molecule, the figures for the GI50 in the test with HCC 2998 and in the test with MDA-N were 8.95 µM (inactive) and 1.14 µM (inactive), respectively.

In the case of `Nc1cccc2cc(S(=O)(=O)Nc3ccc(C(=O)O)cc3)ccc12`, the GI50 in the test on RXF 393, with SN12C, with Malme-3M, with UO-31, with KM12 and in the test on HCT-116 was > 100 µM (inactive) each time. Also, the GI50 in the test on UACC-257, in the test with RPMI-8226, with TK-10, with IGROV-1, in the test on NCI-H460 and in the test with 786-0 was > 100 µM (inactive) throughout. In addition, the GI50 in the test with LOX IMVI, in the test with SF-295, in the test with HOP-62, in the test on U-251, in the test on OVCAR-4 and with HL-60 was > 100 µM (inactive) each time. Further, the GI50 with HCC 2998 and with MDA-N was > 100 µM (inactive) each time.

In the case of `c1ccc2c(c1)c1c(c3ccccc32)CN2CCCC2C1` (stereo not drawn), the GI50 was 2.34 µM (inactive) in the test with RXF 393; 2.7 µM (inactive) in the test on SN12C; 2.45 µM (inactive) in the test on Malme-3M; 2.77 µM (inactive) in the test on UO-31; 4.2 µM (inactive) in the test with KM12; 3.17 µM (inactive) in the test on HCT-116. Also, the GI50 with UACC-257 was 4.05 µM (inactive); in the test with RPMI-8226, 4.24 µM (inactive); with TK-10, 10.4 µM (inactive); in the test on IGROV-1, 2.7 µM (inactive); in the test on NCI-H460, 3.03 µM (inactive); in the test with 786-0, 3.94 µM (inactive). The GI50 is 3.35 µM (inactive) in the test on LOX IMVI; 3.09 µM (inactive) in the test on SF-295; 2.79 µM (inactive) in the test with HOP-62; 3.4 µM (inactive) in the test with U-251; 3.3 µM (inactive) with OVCAR-4; 1.41 µM (inactive) in the test on HL-60. The values for the GI50 in the test with HCC 2998 and with MDA-N were 4.22 µM (inactive) and 2.82 µM (inactive), respectively.
